# Data: publication PMC12090182, “Repurposing of the RIPK1-Selective Benzo[1,4]oxazepin-4-one Scaffold for the Development of a Type III LIMK1/2 Inhibitor” (ACS Chemical Biology, 2025)
# Like-named read-outs stand apart in the source and are kept apart here.
# Tested on: HEK293T cells
# Format: cell-based
# Conditions: HEK293T
# In short: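 HEK293T and U2OS cells (DMEM) and MRC-9 fibroblasts (EMEM) exposed to compounds at 1 and 10 μM. Live-cell confocal imaging of cell shape and fluorescence before and at 12, 24 and 48 h. Normalized to 0.1% DMSO; biological duplicates with SEM.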
# [1] = 1 µM, 0 h, biological replicate 1
# [2] = 1 µM, 0 h, biological replicate 2
# [3] = 1 µM, 12 h, biological replicate 1
# [4] = 1 µM, 12 h, biological replicate 2
# [5] = 1 µM, 24 h, biological replicate 1
# [6] = 1 µM, 24 h, biological replicate 2
# [7] = 1 µM, 48 h, biological replicate 1
# [8] = 1 µM, 48 h, biological replicate 2
# [9] = 10 µM, 0 h, biological replicate 1
# [10] = 10 µM, 0 h, biological replicate 2
# [11] = 10 µM, 12 h, biological replicate 1
# [12] = 10 µM, 12 h, biological replicate 2
# [13] = 10 µM, 24 h, biological replicate 1
# [14] = 10 µM, 24 h, biological replicate 2
# [15] = 10 µM, 48 h, biological replicate 1
# [16] = 10 µM, 48 h, biological replicate 2
compound,measurement,setting,value
CC(C)C(=O)Nc1ncc(-c2cc(C(F)F)nn2-c2c(Cl)cccc2Cl)s1 [LIMKi3],Cell count normalized to cells treated with DMSO control,[1],1.015
same,Cell count per well,[1],303
same,Population Fragmented Nuclei (%),[1],7.35%
same,Population Healthy Nuclei (%),[1],47.06%
same,Population Pyknosed Nuclei (%),[1],45.59%
same,Population apoptotic cell (%),[1],38.71%
same,Population cell that influence microtubule strucutre (%),[1],19.53%
same,Population with increased mitochondrial mass (%),[1],60.16%
same,Population with membrane disruption (%),[1],0.00%
same,Cell count normalized to cells treated with DMSO control,[2],1.15
same,Cell count per well,[2],263
same,Population Fragmented Nuclei (%),[2],1.64%
same,Population Healthy Nuclei (%),[2],65.98%
same,Population Pyknosed Nuclei (%),[2],32.38%
same,Population apoptotic cell (%),[2],63.29%
same,Population cell that influence microtubule strucutre (%),[2],26.71%
same,Population with increased mitochondrial mass (%),[2],85.09%
same,Population with membrane disruption (%),[2],0.00%
same,Cell count normalized to cells treated with DMSO control,[3],0.9245
same,Cell count per well,[3],421
same,Population Fragmented Nuclei (%),[3],4.05%
same,Population Healthy Nuclei (%),[3],82.03%
same,Population Pyknosed Nuclei (%),[3],13.92%
same,Population apoptotic cell (%),[3],40.00%
same,Population cell that influence microtubule strucutre (%),[3],44.44%
same,Population with increased mitochondrial mass (%),[3],48.77%
same,Population with membrane disruption (%),[3],0.62%
same,Cell count normalized to cells treated with DMSO control,[4],1.019
same,Cell count per well,[4],357
same,Population Fragmented Nuclei (%),[4],6.58%
same,Population Healthy Nuclei (%),[4],83.39%
same,Population Pyknosed Nuclei (%),[4],10.03%
same,Population apoptotic cell (%),[4],53.13%
same,Population cell that influence microtubule strucutre (%),[4],34.59%
same,Population with increased mitochondrial mass (%),[4],63.16%
same,Population with membrane disruption (%),[4],0.38%
same,Cell count normalized to cells treated with DMSO control,[5],0.9573
same,Cell count per well,[5],581
same,Population Fragmented Nuclei (%),[5],6.08%
same,Population Healthy Nuclei (%),[5],81.40%
same,Population Pyknosed Nuclei (%),[5],12.52%
same,Population apoptotic cell (%),[5],38.57%
same,Population cell that influence microtubule strucutre (%),[5],25.27%
same,Population with increased mitochondrial mass (%),[5],30.55%
same,Population with membrane disruption (%),[5],1.32%
same,Cell count normalized to cells treated with DMSO control,[6],1.028
same,Cell count per well,[6],464
same,Population Fragmented Nuclei (%),[6],11.83%
same,Population Healthy Nuclei (%),[6],78.42%
same,Population Pyknosed Nuclei (%),[6],9.74%
same,Population apoptotic cell (%),[6],30.95%
same,Population cell that influence microtubule strucutre (%),[6],20.41%
same,Population with increased mitochondrial mass (%),[6],38.46%
same,Population with membrane disruption (%),[6],0.30%
same,Cell count normalized to cells treated with DMSO control,[7],0.8177
same,Cell count per well,[7],827
same,Population Fragmented Nuclei (%),[7],14.02%
same,Population Healthy Nuclei (%),[7],79.47%
same,Population Pyknosed Nuclei (%),[7],6.51%
same,Population apoptotic cell (%),[7],28.85%
same,Population cell that influence microtubule strucutre (%),[7],17.17%
same,Population with increased mitochondrial mass (%),[7],22.36%
same,Population with membrane disruption (%),[7],1.10%
same,Cell count normalized to cells treated with DMSO control,[8],1.021
same,Cell count per well,[8],697
same,Population Fragmented Nuclei (%),[8],11.19%
same,Population Healthy Nuclei (%),[8],83.72%
same,Population Pyknosed Nuclei (%),[8],5.09%
same,Population apoptotic cell (%),[8],14.29%
same,Population cell that influence microtubule strucutre (%),[8],14.58%
same,Population with increased mitochondrial mass (%),[8],22.05%
same,Population with membrane disruption (%),[8],0.69%
same,Cell count normalized to cells treated with DMSO control,[9],1.049
same,Cell count per well,[9],313
same,Population Fragmented Nuclei (%),[9],6.13%
same,Population Healthy Nuclei (%),[9],53.26%
same,Population Pyknosed Nuclei (%),[9],40.61%
same,Population apoptotic cell (%),[9],42.45%
same,Population cell that influence microtubule strucutre (%),[9],17.27%
same,Population with increased mitochondrial mass (%),[9],58.99%
same,Population with membrane disruption (%),[9],0.00%
same,Cell count normalized to cells treated with DMSO control,[10],1.189
same,Cell count per well,[10],272
same,Population Fragmented Nuclei (%),[10],5.14%
same,Population Healthy Nuclei (%),[10],69.17%
same,Population Pyknosed Nuclei (%),[10],25.69%
same,Population apoptotic cell (%),[10],58.46%
same,Population cell that influence microtubule strucutre (%),[10],23.43%
same,Population with increased mitochondrial mass (%),[10],84.57%
same,Population with membrane disruption (%),[10],0.00%
same,Cell count normalized to cells treated with DMSO control,[11],0.8125
same,Cell count per well,[11],370
same,Population Fragmented Nuclei (%),[11],7.52%
same,Population Healthy Nuclei (%),[11],78.06%
same,Population Pyknosed Nuclei (%),[11],14.42%
same,Population apoptotic cell (%),[11],54.35%
same,Population cell that influence microtubule strucutre (%),[11],58.63%
same,Population with increased mitochondrial mass (%),[11],84.34%
same,Population with membrane disruption (%),[11],0.80%
same,Cell count normalized to cells treated with DMSO control,[12],1.053
same,Cell count per well,[12],369
same,Population Fragmented Nuclei (%),[12],5.29%
same,Population Healthy Nuclei (%),[12],71.47%
same,Population Pyknosed Nuclei (%),[12],23.24%
same,Population apoptotic cell (%),[12],41.77%
same,Population cell that influence microtubule strucutre (%),[12],57.61%
same,Population with increased mitochondrial mass (%),[12],88.89%
same,Population with membrane disruption (%),[12],1.23%
same,Cell count normalized to cells treated with DMSO control,[13],0.6376
same,Cell count per well,[13],387
same,Population Fragmented Nuclei (%),[13],7.23%
same,Population Healthy Nuclei (%),[13],75.14%
same,Population Pyknosed Nuclei (%),[13],17.63%
same,Population apoptotic cell (%),[13],40.98%
same,Population cell that influence microtubule strucutre (%),[13],62.69%
same,Population with increased mitochondrial mass (%),[13],85.38%
same,Population with membrane disruption (%),[13],0.38%
same,Cell count normalized to cells treated with DMSO control,[14],0.8682
same,Cell count per well,[14],392
same,Population Fragmented Nuclei (%),[14],3.68%
same,Population Healthy Nuclei (%),[14],77.34%
same,Population Pyknosed Nuclei (%),[14],18.98%
same,Population apoptotic cell (%),[14],47.76%
same,Population cell that influence microtubule strucutre (%),[14],63.74%
same,Population with increased mitochondrial mass (%),[14],83.88%
same,Population with membrane disruption (%),[14],0.73%
same,Cell count normalized to cells treated with DMSO control,[15],0.5082
same,Cell count per well,[15],514
same,Population Fragmented Nuclei (%),[15],8.84%
same,Population Healthy Nuclei (%),[15],75.22%
same,Population Pyknosed Nuclei (%),[15],15.95%
same,Population apoptotic cell (%),[15],52.70%
same,Population cell that influence microtubule strucutre (%),[15],69.63%
same,Population with increased mitochondrial mass (%),[15],76.50%
same,Population with membrane disruption (%),[15],0.29%
same,Cell count normalized to cells treated with DMSO control,[16],0.7148
same,Cell count per well,[16],488
same,Population Fragmented Nuclei (%),[16],9.82%
same,Population Healthy Nuclei (%),[16],75.45%
same,Population Pyknosed Nuclei (%),[16],14.73%
same,Population apoptotic cell (%),[16],34.85%
same,Population cell that influence microtubule strucutre (%),[16],65.68%
same,Population with increased mitochondrial mass (%),[16],74.26%
same,Population with membrane disruption (%),[16],1.78%
